Measured values taken from ChEMBL document CHEMBL1938320, “Biological evaluation and docking studies of recently identified inhibitors of phosphoinositide-3-kinases” (Bioorg Med Chem Lett, 2012).
Activity calls are given as the source filed them. No cut-off for these calls is given here.

Assays:
[1] = tested on: Phosphatidylinositol 4,5-bisphosphate 3-kinase catalytic subunit alpha isoform (Homo sapiens), P42336 [H1047R]; experiment: Inhibition of PI3Kalpha H1047R mutant in human HCT116 cells assessed as inhibition of Akt Ser473 phosphorylation at 10 uM by immunoblot analysis; type: cell-based; conditions: HCT-116
[2] = biological target: Phosphatidylinositol 4,5-bisphosphate 3-kinase catalytic subunit alpha isoform (Homo sapiens) (UniProt P42336); experiment: Inhibition of PI3Kalpha in human HCT116 cells assessed as inhibition of Akt Ser473 phosphorylation at 10 uM by immunoblot analysis; type: cell-based; conditions: HCT-116
[3] = tested on: Phosphatidylinositol 4,5-bisphosphate 3-kinase catalytic subunit alpha isoform (Homo sapiens), P42336 [H1047R]; experiment: Inhibition of PI3Kalpha H1047R mutant in human HCT116 cells using [32P]ATP at 10 uM after 10 mins; type: cell-based; conditions: HCT-116
HCT-116 [4] = experiment: Growth inhibition of human HCT116 cells overexpressing PI3Kalpha H1047R mutant after 48 hrs by MTT assay; type: functional, cell-based; conditions: HCT-116, 48 h
HCT-116 [5] = experiment: Inhibition of Akt expression in human HCT116 cells at 10 uM by immunoblot analysis; type: functional, cell-based
HCT-116 [6] = experiment: Induction of apoptosis in human HCT116 cells assessed DNA fragmentation at 25 uM after 48 hrs by ELISA relative to control; type: functional
HCT-116 [7] = experiment: Induction of apoptosis in human HCT116 cells overexpressing PI3Kalpha assessed DNA fragmentation at 25 uM after 48 hrs by ELISA relative to control; type: functional
HCT-116 [8] = experiment: Growth inhibition of human HCT116 cells overexpressing PI3Kalpha after 48 hrs by MTT assay; type: functional, cell-based; conditions: HCT-116, 48 h
HCT-116 [9] = experiment: cells; conditions: Homo sapiens, HCT-116, 48 h
Description: Growth inhibition of human HCT116 cells after 48 hrs by MTT assay

HCT-116 [10] = experiment: Induction of apoptosis in human HCT116 cells overexpressing PI3Kalpha H1047R mutant assessed DNA fragmentation at 25 uM after 48 hrs by ELISA relative to control; type: functional
[11] = biological target: Phosphatidylinositol 4,5-bisphosphate 3-kinase catalytic subunit alpha isoform (Homo sapiens) (UniProt P42336); experiment: Inhibition of PI3Kalpha in human HCT116 cells using [32P]ATP at 10 uM after 10 mins; type: cell-based; conditions: HCT-116
[12] = biological target: Phosphatidylinositol 4,5-bisphosphate 3-kinase catalytic subunit alpha isoform (Homo sapiens) (UniProt P42336); experiment: Inhibition of PI3Kalpha in human HCT116 cells using [32P]ATP at 25 uM after 10 mins; type: cell-based; conditions: HCT-116
[13] = tested on: Phosphatidylinositol 4,5-bisphosphate 3-kinase catalytic subunit alpha isoform (Homo sapiens), P42336 [H1047R]; experiment: Inhibition of PI3Kalpha H1047R mutant in human HCT116 cells assessed as inhibition of Akt Ser473 phosphorylation at 25 uM by immunoblot analysis; type: cell-based; conditions: HCT-116
[14] = tested on: Phosphatidylinositol 4,5-bisphosphate 3-kinase catalytic subunit alpha isoform (Homo sapiens), P42336 [H1047R]; experiment: Inhibition of PI3Kalpha H1047R mutant in human HCT116 cells using [32P]ATP at 25 uM after 10 mins; type: cell-based; conditions: HCT-116
[15] = biological target: Phosphatidylinositol 4,5-bisphosphate 3-kinase catalytic subunit alpha isoform (Homo sapiens) (UniProt P42336); experiment: Inhibition of PI3Kalpha in human HCT116 cells assessed as inhibition of Akt Ser473 phosphorylation at 25 uM by immunoblot analysis; type: cell-based; conditions: HCT-116

Sequence of Phosphatidylinositol 4,5-bisphosphate 3-kinase catalytic subunit alpha isoform (Homo sapiens), P42336 [H1047R] (P42336 whole entry H1047R, canonical isoform): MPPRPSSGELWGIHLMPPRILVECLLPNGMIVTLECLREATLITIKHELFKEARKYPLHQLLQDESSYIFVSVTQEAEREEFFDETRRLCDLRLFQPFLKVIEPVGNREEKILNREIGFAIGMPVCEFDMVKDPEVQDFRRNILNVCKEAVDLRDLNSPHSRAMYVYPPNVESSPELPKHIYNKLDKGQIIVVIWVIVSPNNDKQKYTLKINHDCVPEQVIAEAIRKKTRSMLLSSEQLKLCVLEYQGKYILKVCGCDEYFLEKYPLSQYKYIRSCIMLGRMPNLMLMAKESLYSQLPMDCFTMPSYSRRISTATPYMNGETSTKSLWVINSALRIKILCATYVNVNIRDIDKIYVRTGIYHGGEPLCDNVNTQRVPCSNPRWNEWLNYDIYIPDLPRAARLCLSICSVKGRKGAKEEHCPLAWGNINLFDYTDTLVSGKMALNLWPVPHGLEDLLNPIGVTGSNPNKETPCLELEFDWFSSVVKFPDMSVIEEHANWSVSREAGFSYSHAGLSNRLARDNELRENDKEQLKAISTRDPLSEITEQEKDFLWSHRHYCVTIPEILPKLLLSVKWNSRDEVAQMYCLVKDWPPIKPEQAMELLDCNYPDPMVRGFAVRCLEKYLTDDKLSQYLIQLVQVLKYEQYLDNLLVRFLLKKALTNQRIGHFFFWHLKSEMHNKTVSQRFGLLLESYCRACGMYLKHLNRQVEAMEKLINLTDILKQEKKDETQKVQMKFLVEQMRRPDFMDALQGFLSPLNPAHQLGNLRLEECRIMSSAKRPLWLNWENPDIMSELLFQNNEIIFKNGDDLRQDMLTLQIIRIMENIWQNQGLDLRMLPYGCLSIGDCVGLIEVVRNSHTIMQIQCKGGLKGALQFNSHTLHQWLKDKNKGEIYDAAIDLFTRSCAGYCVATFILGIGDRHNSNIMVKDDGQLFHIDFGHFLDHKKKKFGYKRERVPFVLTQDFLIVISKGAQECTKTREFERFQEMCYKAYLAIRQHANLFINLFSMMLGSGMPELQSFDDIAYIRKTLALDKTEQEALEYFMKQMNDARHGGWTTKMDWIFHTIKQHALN
Sequence of Phosphatidylinositol 4,5-bisphosphate 3-kinase catalytic subunit alpha isoform (Homo sapiens) (P42336 whole entry, canonical isoform): as the sequence (P42336 whole entry H1047R, canonical isoform) above, with R1047H counted along it

With `Cc1cc(O)c2c(c1)C(=O)c1cc(O)cc(O)c1C2=O` [EMODIN] the inhibition [1] was “Active”, the inhibition [2] was “Active” and the inhibition [3] was “Active”. For the same compound, the IC50 (HCT-116 [4]) was 3.8 µM, the inhibition (HCT-116 [5]) was “Active” and the “fold change (FC)” value (HCT-116 [6]) was 8.6. For the same compound, the “fold change (FC)” value (HCT-116 [7]) was 12, the IC50 (HCT-116 [8]) was 5.3 µM and the IC50 (HCT-116 [9]) was 6.2 µM. For the same compound, the “fold change (FC)” value (HCT-116 [10]) was 13 and the inhibition [11] was “Active”.

In the case of `COc1ccc(C(=O)c2ccccc2C(=O)O)c(O)c1`, the inhibition [12] is reported as “Active”, the inhibition [13] is reported as “Active” and the inhibition [14] is reported as “Active”. The IC50 (HCT-116 [4]) was 18 µM, the inhibition (HCT-116 [5]) was “inactive” and the “fold change (FC)” value (HCT-116 [6]) was 1.8. The “fold change (FC)” value (HCT-116 [7]) was 1.3, the IC50 (HCT-116 [8]) was 31 µM and the IC50 (HCT-116 [9]) was 13 µM. For the same compound, the inhibition [15] was “Active” and the “fold change (FC)” value (HCT-116 [10]) was 3.

`O=c1c(O)c(-c2cc(O)c(O)c(O)c2)oc2cc(O)cc(O)c12` [MYRICETIN] was tested, and the inhibition [12] was “Active”, the inhibition [13] was “Active” and the inhibition [14] was “Active”. For the same compound, the inhibition (HCT-116 [5]) was “inactive” and the inhibition [15] was “Active”.

In the case of `O=C(NCc1ccccc1)c1c(O)nc2ccccc2c1O`, the inhibition [12] is reported as “Active”, the inhibition [13] is reported as “Active” and the inhibition [14] is reported as “Active”. For the same compound, the IC50 (HCT-116 [4]) was 0.73 µM, the inhibition (HCT-116 [5]) was “inactive” and the “fold change (FC)” value (HCT-116 [6]) was 2.9. The “fold change (FC)” value (HCT-116 [7]) was 3.2, the IC50 (HCT-116 [8]) was 1.1 µM and the IC50 (HCT-116 [9]) was 1.8 µM. For the same compound, the inhibition [15] was “Active” and the “fold change (FC)” value (HCT-116 [10]) was 11.

In the case of `O=c1c(O)c(-c2ccc(O)c(O)c2)oc2cc(O)cc(O)c12` [QUERCETIN], the inhibition [12] is reported as “Active”, the inhibition [13] is reported as “Active” and the inhibition [14] is reported as “Active”. For the same compound, the IC50 (HCT-116 [4]) was 5.7 µM, the inhibition (HCT-116 [5]) was “inactive” and the “fold change (FC)” value (HCT-116 [6]) was 1. The “fold change (FC)” value (HCT-116 [7]) was 2.5, the IC50 (HCT-116 [8]) was 23 µM and the IC50 (HCT-116 [9]) was 6.7 µM. The inhibition [15] was “Active” and the “fold change (FC)” value (HCT-116 [10]) was 4.

In the case of `O=c1cc(N2CCOCC2)oc2c(-c3ccccc3)cccc12` [LY-294002], the inhibition [1] is reported as “Active”, the inhibition [2] is reported as “Active” and the inhibition [3] is reported as “Active”. The inhibition (HCT-116 [5]) was “inactive”, the “fold change (FC)” value (HCT-116 [6]) was 3.8 and the “fold change (FC)” value (HCT-116 [7]) was 8.5. The “fold change (FC)” value (HCT-116 [10]) was 8.6 and the inhibition [11] was “Active”.
